Test results published in PMC11292009, “Mapping protein binding sites by photoreactive fragment pharmacophores” (Communications Chemistry, 2024).
Values joined by “and” are separate entries in the source; they are usually repeats but may differ in a detail not shown here. Equal entries are not always repeated.

Key:
PANC-1 cells = assay: MTT cell viability assay, PANC-1; assay type: cell-based, human; conditions: for cell viability: replicates
Excerpt: (§1) Pancreatic cancer cell lines PANC-1 (cat. no. CRL-1469), SW1990 (cat. no. CRL-2172) were obtained from ATCC (American Type Culture Collection). Genetically modified isogeneic colon cancer cell lines SW48-PAR and SW48-G12D were obtained from Horizon Discovery Ltd. PANC-1 (human pancreatic cancer, KRas^G12D), SW1990 (human pancreatic cancer, KRas^G12D), SW48-PAR (human colon cancer; parental cell line KRas^wt), and SW48-G12D (human colon cancer; heterozygous knockin of the KRas^G12D activating mutation) cancer cell lines were cultured in Roswell Park Memorial Institute Medium (RPMI; Biosera, Nuaille, France), supplemented with 10% heat-inactivated Fetal Bovine Serum (FBS; Biosera), and with 1% Penicillin/Streptomycin (Biosera). Cells were cultured in sterile T75 flasks with ventilation cap (Sarstedt, Nümbrecht, Germany) at 37 °C in a humidified atmosphere with 5% CO2 in ESCO CelCulture Incubator (ESCO, Friedberg, Germany). Manipulations with the cells were performed in biosafety cabinet (laminar) ESCO Sentinel Gold class II model AC2-4E8 (ESCO).
(§2) After standard harvesting of the cells by trypsin-EDTA (Biosera), 7 × 10^3 cells per well depending on the cell line, were seeded in serum-containing growth medium to 96-well plates and incubated. After 24 h, cells were treated with various concentrations of fragments (32 nM–100 μM), dissolved in serum-containing medium, and incubated under standard conditions. Control wells were treated with medium. Final concentration of serum was 2.5%, final concentration of DMSO was 0.2%. Treatment was for 72 h continuously.
(§3) Afterwards, MTT assay was performed in order to determine cell viability, by adding 20 μL of MTT solution (5 mg/mL in PBS) to each well and after 2 h of incubation at 37 °C, the supernatant was removed. The formazan crystals were dissolved in 100 μL of a 1:1 solution of DMSO (Sigma-Aldrich):EtOH (Molar Chemicals) and the absorbance was measured after 15 min at λ = 570 nm by using a microplate reader (BioTek 800TS, Agilent, Santa Clara, CA, USA). The IC50 values of the fragments were calculated using GraphPad Prism 6 (GraphPad Software, San Diego, CA, USA). The experiments were done in triplicate, and each experiment was repeated two times.

SW1990 cells = assay: MTT cell viability assay, SW1990; assay type: cell-based, human; conditions: for cell viability: replicates, in % (unit assumed)
Excerpt: as §1, §2, §3

STAT5B NTD = target: T1, STAT5B NTD (Homo sapiens, UniProt P51692); assay: Microscale thermophoresis (MST), without irradiation; assay type: binding; conditions: for ΔFnorm: Fnorm - Unbound value, Php097 concentration [log; for Fnorm: MST raw data, PhP097 concentration [log
T1 construct: His-SUMO (N, cleaved yes); made in house; host or cells: E. coli BL21 RILP
T1 sequence (P51692 1-123): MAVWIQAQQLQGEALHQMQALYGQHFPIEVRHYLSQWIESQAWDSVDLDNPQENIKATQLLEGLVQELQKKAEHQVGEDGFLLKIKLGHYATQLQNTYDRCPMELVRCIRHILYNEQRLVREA
Experimental: For the microscale thermophoresis (MST) studies, we prepared 16 two-fold serial dilutions of compounds starting from 500 μM. Titration series were prepared that contained 10 μL of compounds’ solutions of varying concentrations and 10 μL RED-NHS 2nd Generation labeled STAT5B NTD with a concentration of 168 nM for compound PhP097, and a concentration of 84 nM for compound PhP065. Final buffer composition included 1X PBS containing 0.5% DMSO. All measurements were taken in Premium Coated Capillaries on a Monolith NT.115 instrument (NanoTemper Technologies, Munich, Germany) using 80% infrared laser power for compound PhP097, 60% infrared laser power for compound PhP065, and an LED excitation source with λ = 650 nm at a temperature of 25 °C. Results were expressed as the mean of two separate experiments, with three technical replicates each. GraphPad Prism 9.5.1 software was used to fit the data and to determine the KD values.

MOLM-13 cells = assay: CellTiter-Blue cell viability assay, MOLM-13; assay type: cell-based; conditions: Homo sapiens, MOLM-13, 72 h
Experimental: MV4-11 and MOLM-13 cell lines were purchased from DSMZ (Braunschweig, Germany), and grown at 37 °C and 5% CO2 in RPMI 1640 medium (Gibco^TM, Thermo Fisher Scientific). Media were supplemented with 10% fetal calf serum (FCS), 10 U/mL penicillin, 10 µg/mL streptomycin and 2 mM L-glutamine (all Gibco^TM, Thermo Fisher Scientific).
To determine the IC50 of the selected compounds on the cell lines, CellTiter-Blue® cell viability assay (Promega) was performed. For this, cells were seeded in 96-well flat bottom plates at a cell density of 10,000 cells/well. Cells were treated in triplicates with the compound of interest at various concentrations or with 10 μM Bortezomib (S1013; Selleck Chemicals, Houston, TX, USA) as a positive control. Cell viability of treated cell lines was measured using CellTiter-Blue® after 72 h incubation. Plates were measured using a GloMax® plate reader (Promega) and IC50 values were determined by non-linear regression using the GraphPad Prism 9.1.1 (GraphPad Software, Inc.) and the data are reported as mean values ± SEM.

[1] = µM] -0.0102833, runs/replicates

`Cc1ncc(CO)c(CNC(=O)CCC2(C)N=N2)c1O` [PhP072, Cc1ncc(CO)c(c1O)CNC(=O)CCC2(C)N=N2] was tested, and the IC50 (PANC-1 cells; Homo sapiens, read-out: IC50, antiproliferative activity, PANC-1, MTT, 72 h) was 22.6 µM, the cell viability (PANC-1 cells; PANC-1, [PhP072] 3.2e-8 M, in % (unit assumed)) was 94.1678 and 97.1333 and 95.7988 and 102.516 and 102.977 and 106.78 and the cell viability (PANC-1 cells; PANC-1, [PhP072] 1.6e-7 M) was 92.8333 and 84.2333 and 97.1333 and 102.977 (2×) and 103.899. For the same molecule, the cell viability (PANC-1 cells; PANC-1, [PhP072] 8e-7 M) was 87.6436 and 92.0919 and 90.4609 and 96.2933 (2×) and 94.7953, the cell viability (PANC-1 cells; PANC-1, [PhP072] 4e-6 M, in % (unit assumed)) was 82.1574 and 83.0471 and 79.785 and 89.6098 and 90.0707 and 84.5396 and the cell viability (PANC-1 cells; PANC-1, [PhP072] 2e-5 M, in % (unit assumed)) was 72.9643 and 73.7057 and 70.7401 and 83.3872 and 78.8931 and 79.2388. For the same molecule, the cell viability (PANC-1 cells; PANC-1, [PhP072] 0.0001 M) was 57.9884 and 55.9125 and 55.7642 and 57.9207 and 64.7194 (2×), the IC50 (SW1990 cells; Homo sapiens, read-out: IC50, antiproliferative activity, SW1990, MTT, 72 h) was 17.2 µM and the cell viability (SW1990 cells; SW1990, [PhP072] 3.2e-8 M) was 101.695 and 98.3609 and 102.528 and 107.265 and 99.8137 and 96.5538. For the same molecule, the cell viability (SW1990 cells; SW1990, [PhP072] 1.6e-7 M) was 103.195 and 101.49 and 102.515 and 96.4606, the cell viability (SW1990 cells; SW1990, [PhP072] 8e-7 M) was 103.528 and 101.528 and 95.5272 and 94.039 and 99.4411 and 93.387 and the cell viability (SW1990 cells; SW1990, [PhP072] 4e-6 M) was 101.861 and 97.8608 and 97.1941 and 99.9069 and 97.2989 and 95.6224. The cell viability (SW1990 cells; SW1990, [PhP072] 2e-5 M) was 90.5265 and 81.8586 and 88.0261 and 89.1956 and 90.8722 and 79.3227 and the cell viability (SW1990 cells; SW1990, [PhP072] 0.0001 M) was 62.6893 and 57.5219 and 66.8565 and 62.4641 and 63.023 and 60.1356.

In the case of `CC1(CCC(=O)NCCc2csc(-c3ccccc3)n2)N=N1` [PhP097, N1=NC1(C)CCC(=O)NCCc2csc(n2)-c3ccccc3], the ΔFnorm (STAT5B NTD; µM] 0.591766, runs/replicates) is reported as 5.764 ‰ and 7.778 ‰ and 6.699 ‰ and -1.199 ‰ and -1.302 ‰ and -4.005 ‰, the ΔFnorm (STAT5B NTD; µM] 0.89279, runs/replicates) is reported as -7.395 ‰ and -5.5397 ‰ and -5.711 ‰ and 0.2163 ‰ and 4.053 ‰ and 0.9615 ‰ and the ΔFnorm (STAT5B NTD; µM] 1.19382, runs/replicates) is reported as -4.091 ‰ and -1.8497 ‰ and -1.165 ‰ and -5.318 ‰ and -5.614 ‰ and -5.274 ‰. The ΔFnorm (STAT5B NTD; µM] 1.49485, runs/replicates) was -4.445 ‰ and -4.535 ‰ and -5.873 ‰ and -8.126 ‰ and -4.727 ‰ and -7.108 ‰, the ΔFnorm (STAT5B NTD; µM] 1.79588, runs/replicates) was -8.587 ‰ and -6.363 ‰ and -6.457 ‰ and -11.6433 ‰ and -8.368 ‰ and -12.1062 ‰ and the ΔFnorm (STAT5B NTD; µM] 2.09691, runs/replicates) was -14.77 ‰ and -11.6203 ‰ and -10.8651 ‰ and -10.9408 ‰ and -5.699 ‰ and -12.7461 ‰. For the same molecule, the ΔFnorm (STAT5B NTD; µM] 2.39794, runs/replicates) was -1.7884 ‰ and 0.2047 ‰ and 0.7983 ‰ and -10.6185 ‰ and -13.0284 ‰ and -12.5258 ‰, the ΔFnorm (STAT5B NTD; [1]) was 4.6455 ‰ and 5.66 ‰ and 7.637 ‰ and -9.481 ‰ and -8.884 ‰ and -7.417 ‰ and the ΔFnorm (STAT5B NTD; µM] -0.311313, runs/replicates) was -5.603 ‰ and -3.243 ‰ and -1.459 ‰ and 3.271 ‰ and 2.052 ‰ and 1.015 ‰. The ΔFnorm (STAT5B NTD; µM] -0.913284, runs/replicates) was 4.1952 ‰ and 9.04 ‰ and 7.8226 ‰ and -0.03038 ‰ and -2.726 ‰ and -0.9924 ‰, the ΔFnorm (STAT5B NTD; µM] -1.5157, runs/replicates) was 0.7011 ‰ and -0.01526 ‰ and 1.427 ‰ and -0.3532 ‰ and the Fnorm (STAT5B NTD; µM] 0.591766, runs/replicates) was 720.204 ‰ and 719.528 ‰ and 720.009 ‰ and 710.951 ‰ and 712.028 ‰ and 710.045 ‰. For the same molecule, the Fnorm (STAT5B NTD; µM] 0.89279, runs/replicates) was 707.045 ‰ and 706.21 ‰ and 707.599 ‰ and 712.366 ‰ and 717.383 ‰ and 715.011 ‰, the Fnorm (STAT5B NTD; [1]) was 719.086 ‰ and 717.41 ‰ and 720.947 ‰ and 702.669 ‰ and 704.446 ‰ and 706.633 ‰ and the Fnorm (STAT5B NTD; µM] -0.311313, runs/replicates) was 708.837 ‰ and 708.507 ‰ and 711.851 ‰ and 715.421 ‰ and 715.382 ‰ and 715.065 ‰. For the same molecule, the Fnorm (STAT5B NTD; µM] -0.913284, runs/replicates) was 718.635 ‰ and 720.79 ‰ and 721.133 ‰ and 712.12 ‰ and 710.604 ‰ and 713.058 ‰, the Fnorm (STAT5B NTD; µM] -1.5157, runs/replicates) was 715.141 ‰ and 711.735 ‰ and 714.737 ‰ and 711.797 ‰ and 713.155 ‰ and 719.464 ‰ and the Kd (STAT5B NTD; MST, without irradiation, 25 °C) was 18.1 µM. It also gave an IC50 (MOLM-13 cells) of 68.2 µM.
